# Reference: patent publication US9901637B2, “Vitamin D3 and analogs thereof for treating alopecia” (priority 2009, dated 2018)
# Assays:
# [1] = system: chemotherapy-induced alopecia (CIA); test: Alopecia in chloroleukemic rats receiving multi-course chemotherapy, topical calcitriol; settings: for Extent of Alopecia: number of rats with grade 4+: rats treated with Cyclophosphamide (CTX), 4+=75-100% alopecia
# Text: Long Evans Rats (Harlan Laboratories, Inc) were 3 days old upon arrival. The weight of the animals was obtained upon arrival and every day until the conclusion of the experiments using an electronic scale (American Scientific Products TL 410s). Rats were housed for two days prior to the beginning of experiments. Animals were then randomized in four groups.
# Treatments were started on day 6 after birth. […] Each application entailed rubbing an area of 2 cm^2 for 10 seconds with right index finger covered with a nitrile exam glove. After the completion of the treatments, each rat was individually separated for 6 hours. Subsequently each rat's head and back was washed with mild hand soap (Soft CIDE-EC from VWR International) and distilled water. Pups where then placed back with their mothers and taken back to the animal rooms. For the second anagen cycle, adult rats were placed back in their cages with their littermates and taken back to the animal rooms.
# On day 23 after birth, a blood sample was taken from all rats and differentials were performed. Rats with leukemia were sacrificed while rats without leukemia were used for further experiments. A second differential was performed on day 31, and leukemic animals were sacrificed.
# Vials of 1 mL were subdivided and kept in the refrigerator at 4° C. […] Unused preparations were disposed of.
# For the second course of chemotherapy, rats received 20 mg/kg ADM on days 47 to 49 as described above.
# [2] = system: MIAC51; test: Survival (cure) rate of chloroleukemic rats after two rounds of chemotherapy; assay type: in vivo, Long Evans Rats; settings: rats treated with Cyclophosphamide (CTX), after Two Rounds of Chemotherapy
# Protocol: Animals were then randomized in four groups. All rats received MIAC51 as described below.
# On day 5 after birth all rats received 1×105 MIAC51 intraperitoneally in 0.1 ml of serum free (SF) RPMI. MIAC51 were cultured in RPMI 1640 supplemented with L-glutamine and 10% fetal bovine serum at […] in a 5% CO2, 100% humidity incubator. Cells were grown to 50% confluency (1.5×106 ml) collected in 50 ml conical tubes, centrifuged at 600 g for 10 minutes at room temperature and resuspended in SF-RPMI at a concentration of 1×10^6/ml prior to injection.
# [3] = system: chemotherapy-induced alopecia (CIA); settings: neonatal rats, i.p. chemotherapy, recorded 10 days after last dose
# Protocol: Specifically, Long Evans and Sprague Dawley rats with pups were purchased from Harlan Laboratories, Inc. They were housed and fed according to applicable animal handling rules and regulations. Pups were allowed to acclimate for 48 hours prior to the start of experiments. […] Rats were isolated from their littermates and mother for 6-hour periods of time. Subsequently, the treated area was cleaned with soap and water and pups were returned to their litters. On day 13, rats either received etoposide (1.5 mg/kg daily for 3 days) or cyclophosphamide (CTX) (37.5 mg/kg once) or combination cyclophosphamide (35 mg/kg once) and doxorubicin (2.5 mg/kg daily for 3 days). All chemotherapies were purchased from Sigma and were given intraperitoneally (i.p.) in a total volume of 0.1 mL. Alopecia was recorded 10 days after the last dose of chemotherapy.
smiles,measurement,setting,value
"O=P1(N(CCCl)CCCl)NCCCO1 (centres unmarked) [CTX, cyclophosphamide]",extent of alopecia (grade) in all rats receiving chemotherapy alone,"[1]; chloroleukemic Long Evans rats, after the first round of chemotherapy",+4
same,Extent of Alopecia: number of rats with grade 4+,[1]; after First Round of Chemotherapy,40
same,Extent of Alopecia: number of rats with grade 4+,[1]; after Second Round of Chemotherapy,8
same,"Survival Rate, % cured",[2],20%
same,alopecia in rats receiving chemotherapy without calcitriol,[3],totally alopecic
